How the values were obtained:
Format in all cases: cell-based
ZBTB7A = target: T1, ZBTB7A (Homo sapiens, UniProt O95365+Q96SW2); assay: HUDEP-2 ZBTB7A HiBiT degradation assay; settings: HiBiT-tagged ZBTB7A degradation in HUDEP-2 cells, 24 hours of treatment; read-out: ZBTB7A EC50
T1 construct: HUDEP-2 cells engineered to express a HiBiT tag in either the WIZ (Widely interspaced zinc finger) or ZBTB7A
Protocol: (§1) WIZ Assay and ZBTB7A EC50 Assays. The HiBiT degradation assays for WIZ and ZBTB7A in HUDEP-2 cells were performed as described below. HUDEP-2 cells engineered to express a HiBiT tag in either the WIZ (Widely interspaced zinc finger) or ZBTB7A (Zinc Finger And BTB Domain Containing 7A) proteins were maintained in low attachment flasks in StemSpan SFEM II media supplemented with Penicillin-Streptomycin (50 U/mL), rhSCF (50 ng/mL), rhEPO (3 IU/mL), dexamethasone (0.4 μg/mL) and doxycycline (1 μg/mL). Prior to start of the assay, cell count and viability were measured by trypan blue exclusion using the Vi-cell XR cell viability analyzer.
For the HUDEP-2 ZBTB7A HiBiT assay, cell count and viability were measured by trypan blue exclusion using the Vi-cell XR cell viability analyzer and the cells were transferred to a 50 mL conical and centrifuged at 500 g for five minutes. Cells were resuspended in fresh IMDM media supplemented with L-Glutamine (1×), Penicillin-Streptomycin (50 U/mL), holo-transferrin (330 μg/mL), heparin (2 IU/mL), r-human Insulin (10 μg/mL), rhEPO (3 IU/mL), rhSCF (100 ng/mL)+Dox (1 μg/mL) and 5% human plasma in low attachment flasks, which were placed in a 37° C. incubator with 5% CO2. After 48 hours, cell count and viability were measured by trypan blue exclusion using the Vi-cell XR cell viability analyzer. The HUDEP-2 ZBTB7A cells were transferred to a 50 mL conical, centrifuged at 500 g for five minutes and resuspended at a density of 1.0×10^6 cells/ml in IMDM media supplemented with L-Glutamine (1×), Penicillin-Streptomycin (50 U/mL), holo-transferrin (330 μg/mL), heparin (2 IU/mL), r-human Insulin (10 μg/mL), rhEPO (3 IU/mL), rhSCF (100 ng/mL)+Dox (1 μg/mL) and 5% human plasma. Forty microliters of cell suspension was dispensed into 384-well Low Flange White Flat Bottom Polystyrene TC-treated Microplates containing pre-dispensed compounds, using a VIAFLO 384 liquid hander, and placed in a 37° C. incubator with 5% CO2. […] After 24 hours of treatment, 40 μL Nano-Glo HiBiT Lytic Detection System reagent was dispensed into each well using a VIAFLO 384 liquid hander. Plates were incubated for 25 minutes at room temperature and the luminescence was read as relative luminescent units using the EnVision plate reader. EC50 and Y-min values were calculated using curves calculated from dotmatics software after the normalization to the DMSO control of 10 different concentrations: 10, 3.33, 1.11, 0.37, 0.12, 0.04 0.0137, 0.0046, 0.0015 and […] respectively.

HbF = HbF HiBiT induction assay in HUDEP-2 cells; settings: HUDEP-2 cells with HiBiT tag in HBG1/2, 72 hours of treatment; area under the dose response curve, higher AUC = greater HbF induction
Protocol: HbF HiBiT induction assay. The HiBiT induction assay for HbF in HUDEP-2 cells was performed as described below. HUDEP-2 cells engineered to express a HiBiT tag in HBG1/2 were maintained at a density of 0.1-1×10^6 cells/ml in StemSpan SFEM II supplemented with 1% penicillin/streptomycin, hSCF (50 ng/mL), erythropoietin (EPO; 3 IU/mL), dexamethasone (DEX; 0.4 μg/mL), and doxycycline hyclate (DOX; 1 μg/mL). The cells were cultured in low adherence flasks, in a humidified incubator, set at 37° C. with 5% CO2. Cell counts and viability were measured by trypan blue exclusion using the Vi-CELL XR cell viability analyzer and the cell growth was consistently maintained in log phase.
Prior to the start of experiments, HbF HiBiT-tagged HUDEP-2 cells were transferred to a 50 mL conical and centrifuged at 500×g for 5 minutes, the supernatant removed, and the pellet washed in 5 mL of 1×PBS. The washed cells were centrifuged again at 500×g for 5 minutes and resuspended in IMDM containing; 1×glutamine, 1×penicillin/streptomycin, holo-transferrin (330 μg/mL), heparin (2 IU/mL), r-human insulin (10 μg/mL), EPO (3 IU/mL), 5% human plasma, hSCF (100 ng/mL) and DOX (1 μg/mL) to a final density of 0.3×10^6 cells/mL. Forty microliters of cell suspension were dispensed into 384-well Low Flange White Flat Bottom Polystyrene TC-treated Microplates containing pre-dispensed compounds, using a VIAFLO 384 liquid hander, and placed in a humidified incubator at 37° C. with 5% CO2. […] After 72 hours of treatment, 40 μL of Nano-Glo HiBiT Lytic Solution (prepared according to manufacturer's instructions) were dispensed into each well using a VIAFLO 384 liquid handler, and the plates were shaken for 20 seconds. Plates were incubated for 20 minutes at room temperature, and the luminescence was read as relative luminescent units using an EnVision plate reader.
Dose response curves were generated, and EC50, Ymax, and then area under the curve (AUC) values were calculated. HbF induction was measured using the calculated area under the curve (AUC) value, with higher AUC values indicative of greater HbF induction relative to lower AUC values.

WIZ = target: T2, WIZ (Homo sapiens, UniProt O95785+Q96SW2); assay: HUDEP-2 WIZ HiBiT degradation assay; settings: HiBiT-tagged WIZ degradation in HUDEP-2 cells, 24 hours of treatment; read-out: WIZ EC50
T2 construct: HUDEP-2 cells engineered to express a HiBiT tag in either the WIZ (Widely interspaced zinc finger) or ZBTB7A
T2 sequence (O95785 whole entry): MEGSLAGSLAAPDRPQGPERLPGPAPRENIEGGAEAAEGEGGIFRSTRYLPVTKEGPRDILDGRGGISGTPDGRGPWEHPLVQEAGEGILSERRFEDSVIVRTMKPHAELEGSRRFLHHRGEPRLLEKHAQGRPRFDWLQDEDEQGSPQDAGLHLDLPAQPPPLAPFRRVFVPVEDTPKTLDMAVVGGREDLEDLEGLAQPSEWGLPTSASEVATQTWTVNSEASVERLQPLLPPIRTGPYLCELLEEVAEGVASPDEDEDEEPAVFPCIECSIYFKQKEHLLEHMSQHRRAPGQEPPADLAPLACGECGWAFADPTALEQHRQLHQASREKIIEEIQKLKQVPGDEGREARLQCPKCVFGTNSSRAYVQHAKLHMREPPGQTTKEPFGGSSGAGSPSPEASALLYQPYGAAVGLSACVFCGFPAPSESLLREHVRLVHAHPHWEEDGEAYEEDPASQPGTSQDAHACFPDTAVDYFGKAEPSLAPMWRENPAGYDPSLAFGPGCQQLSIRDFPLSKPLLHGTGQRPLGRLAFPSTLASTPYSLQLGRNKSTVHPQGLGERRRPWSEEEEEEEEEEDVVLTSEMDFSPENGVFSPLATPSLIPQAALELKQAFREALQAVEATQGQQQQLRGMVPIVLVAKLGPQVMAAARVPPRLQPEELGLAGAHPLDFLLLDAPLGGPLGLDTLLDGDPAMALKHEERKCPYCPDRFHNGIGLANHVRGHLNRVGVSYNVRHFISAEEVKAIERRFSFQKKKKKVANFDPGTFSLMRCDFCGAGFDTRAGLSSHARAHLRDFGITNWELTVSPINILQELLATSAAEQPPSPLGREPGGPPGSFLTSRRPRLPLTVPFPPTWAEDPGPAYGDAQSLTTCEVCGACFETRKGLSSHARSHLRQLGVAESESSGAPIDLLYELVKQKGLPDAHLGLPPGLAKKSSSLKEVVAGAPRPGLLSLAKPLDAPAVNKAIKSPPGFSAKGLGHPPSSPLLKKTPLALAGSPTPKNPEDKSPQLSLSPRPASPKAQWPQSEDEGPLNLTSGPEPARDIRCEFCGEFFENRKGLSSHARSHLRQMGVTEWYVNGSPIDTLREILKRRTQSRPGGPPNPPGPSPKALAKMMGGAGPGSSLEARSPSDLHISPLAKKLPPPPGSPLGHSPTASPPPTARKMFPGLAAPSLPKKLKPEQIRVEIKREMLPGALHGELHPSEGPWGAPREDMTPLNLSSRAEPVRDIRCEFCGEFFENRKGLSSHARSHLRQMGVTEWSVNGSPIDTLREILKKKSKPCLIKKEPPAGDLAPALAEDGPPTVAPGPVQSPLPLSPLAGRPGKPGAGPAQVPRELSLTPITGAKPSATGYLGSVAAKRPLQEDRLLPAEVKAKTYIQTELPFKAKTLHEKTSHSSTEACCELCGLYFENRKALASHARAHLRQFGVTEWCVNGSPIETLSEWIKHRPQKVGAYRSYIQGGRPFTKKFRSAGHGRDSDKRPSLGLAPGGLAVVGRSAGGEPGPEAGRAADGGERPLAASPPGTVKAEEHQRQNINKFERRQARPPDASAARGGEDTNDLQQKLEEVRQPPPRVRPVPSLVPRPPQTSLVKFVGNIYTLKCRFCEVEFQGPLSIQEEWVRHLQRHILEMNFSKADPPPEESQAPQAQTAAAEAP
T2 sequence (Q96SW2 whole entry): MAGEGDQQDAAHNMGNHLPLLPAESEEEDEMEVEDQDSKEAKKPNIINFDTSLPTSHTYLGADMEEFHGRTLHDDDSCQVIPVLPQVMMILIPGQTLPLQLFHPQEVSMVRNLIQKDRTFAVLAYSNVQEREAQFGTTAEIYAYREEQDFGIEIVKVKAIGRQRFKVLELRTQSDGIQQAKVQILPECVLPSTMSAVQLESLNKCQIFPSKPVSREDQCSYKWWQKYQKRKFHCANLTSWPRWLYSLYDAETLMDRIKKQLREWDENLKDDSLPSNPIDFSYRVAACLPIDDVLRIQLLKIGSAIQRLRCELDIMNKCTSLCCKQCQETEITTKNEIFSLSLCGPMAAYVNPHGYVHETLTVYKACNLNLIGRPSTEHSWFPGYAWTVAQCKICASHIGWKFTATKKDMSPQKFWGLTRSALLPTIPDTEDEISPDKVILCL
T2 sequence (Q16531 whole entry partner): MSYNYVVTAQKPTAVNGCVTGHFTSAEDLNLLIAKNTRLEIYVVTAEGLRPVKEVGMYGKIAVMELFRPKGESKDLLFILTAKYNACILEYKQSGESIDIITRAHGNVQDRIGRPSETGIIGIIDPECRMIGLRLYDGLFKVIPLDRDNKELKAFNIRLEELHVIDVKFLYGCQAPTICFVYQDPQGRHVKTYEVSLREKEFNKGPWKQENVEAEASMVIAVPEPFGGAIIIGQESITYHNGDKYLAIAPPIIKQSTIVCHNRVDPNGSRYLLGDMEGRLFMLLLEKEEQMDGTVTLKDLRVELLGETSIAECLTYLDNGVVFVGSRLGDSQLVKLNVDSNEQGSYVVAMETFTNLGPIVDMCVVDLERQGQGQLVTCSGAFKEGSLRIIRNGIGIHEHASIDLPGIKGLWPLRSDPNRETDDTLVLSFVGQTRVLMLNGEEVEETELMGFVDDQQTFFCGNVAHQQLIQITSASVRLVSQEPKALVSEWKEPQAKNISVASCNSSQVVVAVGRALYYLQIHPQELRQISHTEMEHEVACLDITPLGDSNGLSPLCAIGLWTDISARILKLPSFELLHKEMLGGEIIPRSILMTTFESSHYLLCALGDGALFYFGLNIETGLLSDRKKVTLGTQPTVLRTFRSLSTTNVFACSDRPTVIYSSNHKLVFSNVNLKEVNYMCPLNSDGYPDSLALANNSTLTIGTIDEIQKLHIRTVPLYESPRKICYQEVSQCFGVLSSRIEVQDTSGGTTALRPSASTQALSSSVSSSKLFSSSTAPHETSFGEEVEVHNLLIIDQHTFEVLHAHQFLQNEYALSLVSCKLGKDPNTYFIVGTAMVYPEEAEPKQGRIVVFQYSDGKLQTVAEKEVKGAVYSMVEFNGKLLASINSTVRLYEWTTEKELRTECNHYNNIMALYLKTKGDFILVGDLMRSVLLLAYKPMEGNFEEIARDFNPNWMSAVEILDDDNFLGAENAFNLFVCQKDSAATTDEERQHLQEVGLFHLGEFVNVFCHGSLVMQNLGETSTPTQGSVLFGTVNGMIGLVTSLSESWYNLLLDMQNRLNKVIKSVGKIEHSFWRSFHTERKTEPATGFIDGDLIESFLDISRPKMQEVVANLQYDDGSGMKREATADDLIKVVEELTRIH
Protocol: as §1
For the HUDEP-2 WIZ HiBiT assay, cells were transferred to a 50 mL conical and centrifuged at 500 g for five minutes. Cells were resuspended in fresh StemSpan SFEM II media supplemented with Penicillin-Streptomycin (50 U/mL), rhSCF (50 ng/mL), rhEPO (3 IU/mL), dexamethasone (0.4 μg/mL) and doxycycline (1 μg/mL) at a density of 1.0×10^6 cells/ml. Forty microliters of cell suspension was dispensed into 384-well Low Flange White Flat Bottom Polystyrene TC-treated Microplates containing pre-dispensed compounds, using a VIAFLO 384 liquid hander, and placed in a 37° C. incubator with 5% CO2. […] After 24 hours of treatment, 40 μL Nano-Glo HiBiT Lytic Detection System reagent was dispensed into each well using a VIAFLO 384 liquid hander. Plates were incubated for 25 minutes at room temperature and the luminescence was read as relative luminescent units using the EnVision plate reader. EC50 and Y-min values were calculated using curves calculated from dotmatics software after the normalization to the DMSO control of 10 different concentrations: 10, 3.33, 1.11, 0.37, 0.12, 0.04 0.0137, 0.0046, 0.0015 and […] respectively.

T1 sequence (O95365 whole entry): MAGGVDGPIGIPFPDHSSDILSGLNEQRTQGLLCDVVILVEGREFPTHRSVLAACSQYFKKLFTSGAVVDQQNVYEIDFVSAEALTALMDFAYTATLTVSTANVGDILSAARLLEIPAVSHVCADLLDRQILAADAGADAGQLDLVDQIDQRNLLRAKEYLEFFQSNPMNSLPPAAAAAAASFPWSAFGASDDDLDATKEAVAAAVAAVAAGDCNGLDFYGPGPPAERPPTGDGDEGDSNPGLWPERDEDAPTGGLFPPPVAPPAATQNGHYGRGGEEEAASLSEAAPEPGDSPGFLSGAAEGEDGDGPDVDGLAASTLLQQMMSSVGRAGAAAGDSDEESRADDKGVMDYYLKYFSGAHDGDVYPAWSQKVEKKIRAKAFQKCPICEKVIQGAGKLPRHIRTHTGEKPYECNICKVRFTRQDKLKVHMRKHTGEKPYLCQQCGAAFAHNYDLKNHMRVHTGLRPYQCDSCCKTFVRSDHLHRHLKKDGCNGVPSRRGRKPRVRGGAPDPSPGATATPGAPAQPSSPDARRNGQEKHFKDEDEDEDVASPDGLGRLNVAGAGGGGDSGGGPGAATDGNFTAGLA
T1 sequence (Q96SW2 whole entry): as the sequence (Q96SW2 whole entry) above
T1 sequence (Q16531 whole entry partner): as the sequence (Q16531 whole entry partner) above

| Structure (SMILES) | DC50 (ZBTB7A) [µM] | HBF AUC (HbF) | DC50 (WIZ) [µM] |
| --- | --- | --- | --- |
| Cc1cc(-c2cc3c(cc2Nc2cccc4c2C(=O)N(C2CCC(=O)NC2=O)C4=O)N(C)CCO3)ccn1 (centres unmarked) [Compound 1, 2-(2,6-dioxopiperidin-3-yl)-4-((4-methyl-7-(2-methylpyridin-4-yl)-3,4-dihydro-2H-benzo[b][1,4]oxazin-6-yl)amino)isoindoline-1,3-dione] | 0.018 | + (+ = 15 ≤ AUC < 100) | 0.021 |
| Cc1cc(-c2cc3c(cc2Nc2cccc4c2C(=O)N(C2CCC(=O)NC2=O)C4=O)N(C)C(=O)CO3)ccn1 (centres unmarked) [Compound 2, 2-(2,6-dioxopiperidin-3-yl)-4-((4-methyl-7-(2-methylpyridin-4-yl)-3-oxo-3,4-dihydro-2H-benzo[b][1,4]oxazin-6-yl)amino)isoindoline-1,3-dione] | 0.011 | +++ (+++ = AUC ≥ 150) | 0.006 |
| Cc1cc(-c2cc3c(cc2Nc2cccc4c2C(=O)N([C@H]2CCC(=O)NC2=O)C4=O)N(C)[C@H](C)CO3)ccn1 [Compound 3, 4-(((R)-3,4-dimethyl-7-(2-methylpyridin-4-yl)-3,4-dihydro-2H-benzo[b][1,4]oxazin-6-yl)amino)-2-((S)-2,6-dioxopiperidin-3-yl)isoindoline-1,3-dione] | 0.029 | +++ (+++ = AUC ≥ 150) | 0.017 |
| Cc1cc(-c2cc3c(cc2Nc2cccc4c2C(=O)N([C@H]2CCC(=O)NC2=O)C4=O)N(C)[C@@H](C)CO3)ccn1 [Compound 4, 4-(((S)-3,4-dimethyl-7-(2-methylpyridin-4-yl)-3,4-dihydro-2H-benzo[b][1,4]oxazin-6-yl)amino)-2-((S)-2,6-dioxopiperidin-3-yl)isoindoline-1,3-dione] | 0.026 | +++ (+++ = AUC ≥ 150) | 0.083 |
| Cc1cc(-c2cc3c(cc2Nc2cccc4c2C(=O)N([C@H]2CCC(=O)NC2=O)C4=O)N(C)C(=O)[C@H](C)O3)ccn1 [Compound 5, 4-(((S)-2,4-dimethyl-7-(2-methylpyridin-4-yl)-3-oxo-3,4-dihydro-2H-benzo[b][1,4]oxazin-6-yl)amino)-2-((S)-2,6-dioxopiperidin-3-yl)isoindoline-1,3-dione] | 0.019 | + (+ = 15 ≤ AUC < 100) | 0.015 |
| Cc1cc(-c2cc3c(cc2Nc2cccc4c2C(=O)N([C@H]2CCC(=O)NC2=O)C4=O)N(C)C(=O)[C@@H](C)O3)ccn1 [Compound 6, 4-(((R)-2,4-dimethyl-7-(2-methylpyridin-4-yl)-3-oxo-3,4-dihydro-2H-benzo[b][1,4]oxazin-6-yl)amino)-2-((S)-2,6-dioxopiperidin-3-yl)isoindoline-1,3-dione] | 0.049 | + (+ = 15 ≤ AUC < 100) | 0.009 |
| Cc1cc(-c2cc3c(cc2Nc2cccc4c2C(=O)N([C@H]2CCC(=O)NC2=O)C4=O)N(C)C(=O)CO3)c(F)cn1 [Compound 7, (S)-2-(2,6-dioxopiperidin-3-yl)-4-((7-(5-fluoro-2-methylpyridin-4-yl)-4-methyl-3-oxo-3,4-dihydro-2H-benzo[b][1,4]oxazin-6-yl)amino)isoindoline-1,3-dione] | 0.009 | +++ (+++ = AUC ≥ 150) | 0.007 |
| Cc1cc(-c2cc3c(cc2Nc2cccc4c2C(=O)N([C@H]2CCC(=O)NC2=O)C4=O)N(C)C(=O)CO3)cc(C)n1 [Compound 8, (S)-4-((7-(2,6-dimethylpyridin-4-yl)-4-methyl-3-oxo-3,4-dihydro-2H-benzo[b][1,4]oxazin-6-yl)amino)-2-(2,6-dioxopiperidin-3-yl)isoindoline-1,3-dione] | 0.021 | +++ (+++ = AUC ≥ 150) | 0.015 |
| CN1C(=O)COc2cc(-c3ccnc(C(F)F)c3)c(Nc3cccc4c3C(=O)N([C@H]3CCC(=O)NC3=O)C4=O)cc21 [Compound 9, (S)-4-((7-(2-(difluoromethyl)pyridin-4-yl)-4-methyl-3-oxo-3,4-dihydro-2H-benzo[b][1,4]oxazin-6-yl)amino)-2-(2,6-dioxopiperidin-3-yl)isoindoline-1,3-dione] | 0.032 | + (+ = 15 ≤ AUC < 100) | 0.024 |
| Cc1cc(-c2cc3c(cc2Nc2cccc4c2C(=O)N([C@H]2CCC(=O)NC2=O)C4=O)N(C)C(=O)CO3)cc(N)n1 [Compound 10, (S)-4-((7-(2-amino-6-methylpyridin-4-yl)-4-methyl-3-oxo-3,4-dihydro-2H-benzo[b][1,4]oxazin-6-yl)amino)-2-(2,6-dioxopiperidin-3-yl)isoindoline-1,3-dione] | 0.02 | ++ (++ = 100 ≤ AUC < 150) | 0.012 |
| Cc1cc(-c2cc3c(cc2Nc2cccc4c2C(=O)N([C@H]2CCC(=O)NC2=O)C4=O)N(C)C(=O)OC3)ccn1 [Compound 11, (S)-2-(2,6-dioxopiperidin-3-yl)-4-((1-methyl-6-(2-methylpyridin-4-yl)-2-oxo-1,4-dihydro-2H-benzo[d][1,3]oxazin-7-yl)amino)isoindoline-1,3-dione] | 0.017 | ++ (++ = 100 ≤ AUC < 150) | 0.021 |
| Cc1cc(-c2cc3c(cc2Nc2cccc4c2C(=O)N(C2CCC(=O)NC2=O)C4=O)N(C)C(=O)C(C)(C)C3)ccn1 (centres unmarked) [Compound 85, 2-(2,6-dioxopiperidin-3-yl)-4-((1,3,3-trimethyl-6-(2-methylpyridin-4-yl)-2-oxo-1,2,3,4-tetrahydroquinolin-7-yl)amino)isoindoline-1,3-dione] | 0.043 |  | 0.026 |

From patent publication US20250333407A1, “Compounds and Their Use for Treatment of Hemoglobinopathies” (Bristol-Myers Squibb Company, priority 2024, published 2025)
